Results published in article PMC6412019, “Discovery of NV-5138, the first selective Brain mTORC1 activator” (Scientific Reports, 2019).
“Also recorded” adds a separate entry of the source.

Legend:
Sestrin1 = molecular target: T1, Sestrin1 (Homo sapiens, UniProt Q9Y6P5); test: Cellular thermal shift assay (CETSA), intracellular Sestrin1 in HEK-293T cells; format: cell-based; conditions: 30 min, leucine-starved HEK293T cells, read-out: increase of melting temperature of intracellular Sestrin1
T1 sequence (Q9Y6P5 67-492 limits assumed): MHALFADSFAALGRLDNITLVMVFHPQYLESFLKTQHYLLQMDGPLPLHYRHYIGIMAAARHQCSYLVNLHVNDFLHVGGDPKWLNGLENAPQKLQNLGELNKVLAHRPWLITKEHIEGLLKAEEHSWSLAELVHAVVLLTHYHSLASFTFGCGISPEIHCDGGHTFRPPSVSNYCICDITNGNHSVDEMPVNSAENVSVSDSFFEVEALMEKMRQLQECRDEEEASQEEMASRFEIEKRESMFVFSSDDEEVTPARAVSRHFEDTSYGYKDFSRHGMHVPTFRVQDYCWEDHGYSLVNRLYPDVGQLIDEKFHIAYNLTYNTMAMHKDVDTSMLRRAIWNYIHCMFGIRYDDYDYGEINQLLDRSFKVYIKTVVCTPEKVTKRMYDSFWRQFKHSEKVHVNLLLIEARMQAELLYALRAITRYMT
Method: Expression of flag-WDR24 allows for immunoprecipitation of the Sestrin2/GATOR2 complex from amino acid-starved cells with an anti-flag antibody. […] Finally, to determine whether Sestrins and the GATOR pathway are required for NV-5138 activity, HEK-293T cells null for all three Sestrin isoforms or the GATOR1 component Nprl3 were obtained.
CETSA was performed as previously described. […] Cells were then collected, centrifuged for 3 min at 300 g at room-temperature (RT), washed with PBS, centrifuged again, and finally resuspended in 1 ml of RT PBS containing EDTA-free protease-inhibitor tablets (Roche). 100 µl of each cell suspension was heated at the noted temperature for 3 min, samples were then placed on the bench at RT for 3 min before being flash-frozen in liquid nitrogen. To lyse the cells, samples were put through two cycles of freeze-thawing followed by centrifugation at 20,000 g for 20 min at 4 °C. 80 µl of the resulting supernatant was denatured and, resolved by SDS-PAGE. Membranes were imaged using the LI-COR imaging system. Antibodies used are listed in Supplementary Information.

BCAT1 = molecular target: T2, BCAT1 (Homo sapiens, UniProt P54687); test: BCAT enzymatic assay (substrate test), BCAT1; format: biochemical; conditions: NADH oxidation at 340 nm; tested up to 1.5 mM
T2 construct: purchased OriGene TP319229
T2 sequence (P54687 1-386): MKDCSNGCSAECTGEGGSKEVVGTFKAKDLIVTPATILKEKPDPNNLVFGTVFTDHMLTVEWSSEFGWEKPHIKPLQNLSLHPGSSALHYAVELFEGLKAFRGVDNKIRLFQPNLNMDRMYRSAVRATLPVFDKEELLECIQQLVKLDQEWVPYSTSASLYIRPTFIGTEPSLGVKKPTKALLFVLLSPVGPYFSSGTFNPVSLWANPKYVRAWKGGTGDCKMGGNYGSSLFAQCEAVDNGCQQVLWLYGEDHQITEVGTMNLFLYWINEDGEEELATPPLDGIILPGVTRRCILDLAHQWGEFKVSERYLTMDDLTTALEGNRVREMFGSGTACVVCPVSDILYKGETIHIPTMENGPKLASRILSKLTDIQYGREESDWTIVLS
Method: BCAT exists in two isoforms, mitochondrial BCAT2 which is ubiquitously expressed, and cytosolic BCAT1, which is predominantly expressed in embryonic tissues and the adult brain. To determine whether NV-5138 is a substrate for BCAT isoforms, we established an in vitro enzymatic assay using purified BCAT1 and BCAT2 and performed the assay in the forward direction as described. […] The disappearance of absorbance at 340 nm due to NADH oxidation is measured continuously over time.
The assay buffer was dispensed into a 96-well plate and brought up to 37 °C for 10 min before adding BCAT1 or BCAT2 (72 ng) in 0.1 M potassium phosphate buffer. Absorbance at 340 nm was then read every minute for 30 min at RT using an Envision plate reader. Source of each reagents used can be found in Supplementary Information.

mTORC1 [1] = test: mTORC1 activation in rat peripheral tissues after oral dosing (phosphorylated S6 S240/244 immunoblot); format: in vivo; conditions: 1 h after single oral dose; NV-5138 160 mg/kg, leucine 500 mg/kg
Method: (§1) After compound administration, animals were sacrificed by decapitation using a guillotine, immediately Specific regions of the brain were quickly microdissected, tissues collected, and flash frozen in liquid nitrogen. Peripheral tissues and all brain were homogenized using MP homogenizer in Lysis Buffer (Cell lysis buffer: 1% Triton X-100, 50 mM HEPES pH 7.4, 100 mM NaCl, 2 mM EDTA, 10 mM Beta-glycerophosphate, 10 mM Sodium pyrophosphate, and 1 protease inhibitor) at 4 °C. Synaptic proteins and mTORC1 analyses in each brain region were conducted on crude synaptoneurosome preparations as previously described. Equal amounts of total protein from each sample were denatured and, resolved by SDS-PAGE. Membranes were imaged using the LI-COR imaging system. Proteins levels are normalized to tubulin or GAPDH levels and further normalized to vehicle treated rats for each tissue. Antibodies used are listed in Supplementary Information.

HeLa cells = test: 14C-leucine protein incorporation assay in HeLa cells; format: cell-based, human; conditions: for effect on incorporation of 14C-leucine into precipitated proteins: 30 min labeling, CHX 10 ug/ml
Method: Since NV-5138 is an amino acid, we performed two different experiments to rule out any potential liabilities that could arise from the incorporation of NV-5138 into proteins. We first determined whether NV-5138 substitutes for any branched-chain amino acid or methionine into newly synthesized proteins using liquid chromatography followed by tandem mass spectroscopy (LC-MS/MS). NV-5138 (100 µM) or vehicle was incubated with serum and leucine-starved 293T cells for 6 hours followed by proteomic analysis by mass spectrometry.
After incubation, cells were harvested and lysed in Tris/HCl 10 mM pH 7.4 plus 1% NP40. Lysate were mixed with water and 20% trichloroacetic acid (1:1:2) and incubated on ice for 2 h to precipitate the protein. Proteins were collected by centrifugation, solubilized in NaOH, placed in scintillation fluid and read on a Wallac Microbeta Trilux 2450 with a 2-min count. Scintillation values were normalized as the percentage of the counts from the DMSO-treated wells.

mTORC1 [2] = test: mTORC1 activation in rat brain after oral dosing (phosphorylated S6 S240/244 immunoblot); format: in vivo; conditions: for mTORC1 activation in brain (pS6 increase): 1 h after single oral dose, NV-5138 160 mg/kg, leucine 500 mg/kg; for increase in S240/244 pS6 versus vehicle: synaptoneurosomes from pre-frontal cortex
From the text: Given the favorable PK properties of NV-5138, we wished to determine whether oral administration of NV-5138 could activate mTORC1 in the brain and other organs of ad libitum fed rats using the mTORC1 downstream substrate phosphorylated S6 (^S240/244pS6) as a surrogate PD parameter for the activation status of the complex.
as §1

[3] = 160 mg/kg PO, 1 h, synaptoneurosomes

SMILES	ΔTm at 300 µM (Sestrin1) [°C]	transamination by BCAT1 (BCAT1)	mTORC1 activation in kidney, heart, tibialis anterior muscle, testes, epididymal fat (mTORC1 [1])	mTORC1 activation in liver (mTORC1 [1])	mTORC1 activation in lung, spleen, gastrocnemius muscle, eye, thymus (mTORC1 [1])	effect on incorporation of 14C-leucine into precipitated proteins (HeLa cells)	effect on 14C-leucine incorporation at high doses (HeLa cells; high doses)	mTORC1 activation in cerebellum (mTORC1 [2]; [3])	mTORC1 activation in striatum, hippocampus, neocortex (mTORC1 [2]; [3])	mTORC1 activation in brain (pS6 increase) (mTORC1 [2]; ad libitum fed rats)	time of peak mTORC1 activation in brain (mTORC1 [2]; single 160 mg/kg PO)	time until mTORC1 activation back to baseline/vehicle levels (mTORC1 [2]; single 160 mg/kg PO) [h]	increase in S240/244 pS6 versus vehicle (mTORC1 [2]; 1 h after 80 mg/kg PO)	increase in S240/244 pS6 versus vehicle (mTORC1 [2]; 1 h after 160 mg/kg PO, ad libitum fed rats)
CC(C)(C[C@H](N)C(=O)O)C(F)F [NV-5138, (S)-2-amino-5,5-difluoro-4,4-dimethylpentanoic acid]	~2	no decrease in absorption at 340 nm; also recorded: did not observe any transamination	significant activation	trend	little to no activation	did not show any competition	appeared to increase	but not the cerebellum	significant activation	~ 2 fold	~ 3 h	≤ 7	trending increase	~ 2 fold
CC(C)C[C@H](N)C(=O)O [Leucine, L-leucine, reference compound]	~2	transaminated by BCAT1 and BCAT2	significant activation	significant activation	little to no activation	blocked incorporation				no activation				
